According to PMC12081029, “Structural, Spectroscopic, and Docking Analysis of N,O‐Donor Ligand Metal Complex Nanoparticles With Hypolipidemic Effects via Lipoprotein Lipase Activation in High‐Fat Diet Mice” (Chemistry & Biodiversity, 2024):
Values joined by “and” are separate entries in the source; they are usually repeats but may differ in a detail not shown here. Identical values can stand only once. Like-named read-outs stand apart in the source and are kept apart here.

Experiments:
Bacillus subtilis [1] = experiment: Agar diffusion, inhibition zone (ZOI) and activity index; conditions: Bacillus subtilis
Bacillus subtilis [2] = experiment: MIC / MBC determination
Staphylococcus aureus = conditions: cited from earlier work; for Staphylococcus aureus (inhibition zone): in mm
Bacillus subtilis [3] = conditions: cited from earlier work; for Bacillus subtillis (inhibition zone): in mm
Escherichia coli = conditions: cited from earlier work; for Escherichia coli (inhibition zone): in mm
[4] = Table 9, preceding research ref [9]
[5] = Table 9, preceding research ref [7]
[6] = Table 9, preceding research ref [11]

`O.c1cnc2c(c1)ccc1cccnc12` [Phen.H2O, 1,10‐phenanthroline monohydrate] showed a ZOI (Bacillus subtilis [1]; 10^−3 M in DMF, 5 mm holes, 20 h at 37°C) of 1.1 ± 0.16 mm, an AI (Bacillus subtilis [1]; ZOI of compound / ZOI of standard (ampicillin) × 100) of 3.87% and an MBC (Bacillus subtilis [2]) of 0.032 µg/mL. For the same compound, the MIC (Bacillus subtilis [2]) was 0.025 µg/mL and 0.025 ± 0.03 µg/mL.

In the case of `O.O.O.O=C([O-])COCCN1CCN(C(c2ccccc2)c2ccc(Cl)cc2)CC1.O=C([O-])COCCN1CCN(C(c2ccccc2)c2ccc(Cl)cc2)CC1.[Cu+2]` (stereo not shown) [[Cu(CETZ)2(H2O)2].H2O], the “Staphylococcus aureus (inhibition zone)” value (Staphylococcus aureus; [4]) is listed as 15.21 ± 0.46, the “Bacillus subtillis (inhibition zone)” value (Bacillus subtilis [3]; [4]) is listed as 18.31 ± 0.55 and the “Escherichia coli (inhibition zone)” value (Escherichia coli; [4]) is listed as 13.43 ± 0.39.

In the case of `CC(N)C(=O)[O-].O.O=C([O-])COCCN1CCN(C(c2ccccc2)c2ccc(Cl)cc2)CC1.[Cu+2]` (stereo not shown) [[Cu(CETZ)(Ala)(H2O)]], the AI (Staphylococcus aureus; Table 9, Staphylococcus aureus ref [7]) is given as 56.93, the “Staphylococcus aureus (inhibition zone)” value (Staphylococcus aureus; [5]) is given as 15.6 ± 0.4 and the AI (Bacillus subtilis [3]; Table 9, Bacillus subtillis ref [7]) is given as 42.9. The “Bacillus subtillis (inhibition zone)” value (Bacillus subtilis [3]; [5]) was 13.9 ± 0.3, the AI (Escherichia coli; Table 9, Escherichia coli ref [7]) was 52.91 and the “Escherichia coli (inhibition zone)” value (Escherichia coli; [5]) was 11.8 ± 0.5.

In the case of [Cu(AMBI)(CETZ)(NO3)(H2O)2], the AI (Staphylococcus aureus; Table 9, Staphylococcus aureus ref [11]) is listed as 96.72, the “Staphylococcus aureus (inhibition zone)” value (Staphylococcus aureus; [6]) is listed as 26.5 ± 0.6 and the AI (Bacillus subtilis [3]; Table 9, Bacillus subtillis ref [11]) is listed as 89.2. The “Bacillus subtillis (inhibition zone)” value (Bacillus subtilis [3]; [6]) was 28.9 ± 0.3, the AI (Escherichia coli; Table 9, Escherichia coli ref [11]) was 95.10 and the “Escherichia coli (inhibition zone)” value (Escherichia coli; [6]) was 21.3 ± 0.4.
